One data set concerns EAE. Conditions: cited from earlier work.
Data set [1] is classed as physicochemical. The procedure:
A stability assessment was performed in which liposomes from batch 1 were stored in HBS for one month at 4° C. and re-assayed.
• Lipid ratios were varied in the following range for each lipid: • Egg PC or HEPC: ˜53-72 mol % • Cholesterol: ˜25-44 mol % • PEG2000-PE: 1.5 to 6.25 mol % ITE was fixed at 0.5% by weight to the total lipid mass for all the batches tested. ITE was added from a DMSO stock. Batches were observed daily for any signs of precipitation/aggregation

Data set [2] can be described thus: Solubility of ITE in conventional solvents. It is filed as physicochemical. The text has this:
2-(1H-Indol-3-ylcarbonyl)-4-thiazolecarboxylic acid methyl ester (ITE) is a potent aryl hydrocarbon receptor agonist which is difficult to formulate in nanoparticulate form (including gold and PLGA nanoparticles and many conventional liposomal compositions, for example). […] ITE is also highly prone to self-aggregation.

In the next data set the test system is splenocytes of 2D2 mice. Briefly: Proliferation of 2D2 splenocytes stimulated in vitro (Cell Titer Blue). It is filed as cell-based. Conditions: 10 μg MOG; 1 μg ITE; 72 hours at 37° C. Here is the method:
Splenocytes were harvested from 2D2 mice, which express a transgenic 2D2 T cell […] (TCR) specific for MOG35-55 and stimulated in vitro with 10 μg of MOG delivered either freely (Free MOG), loaded in egg-PC liposomes alone (MOG-L) or loaded in egg-PC liposomes and additionally stimulated with ITE-loaded egg-PC liposomes (at a dose of 1 μg ITE). Cell proliferation was assessed after incubation at 37° C. for 72 hours using a Cell Titer Blue cell proliferation assay.

Values after ≈ are worked out from the molar mass of the structure shown. Like-named read-outs stand apart in the source and are kept apart here.

As for `Clc1cc2c(cc1Cl)Oc1cc(Cl)c(Cl)cc1O2` [TCDD, 2,3,7,8-tetrachlorodibenzo-p-dioxin], in the data set on EAE (TCDD vs ITE), the “potency relative to ITE in most in vivo studies” value was ~1,000 fold. For the same compound, the EAE amelioration result in the data set with EAE (dose of 100 ng, Quintana et al. Nature 2008) is reported as “not”; in the data set with EAE (dose of 1 μg, Quintana et al. Nature 2008), “ameliorated EAE”.

Turning to DMPC, in data set [1], the “stability (observation)” value was “in liposome, not stable”.

In the case of `COC(=O)c1csc(C(=O)c2c[nH]c3ccccc23)n1` [ITE, 2-(1H-Indol-3-ylcarbonyl)-4-thiazolecarboxylic acid methyl ester], the solubility (commonly how much of the substance goes into solution per volume) is roughly 3300 µM (≈ 945 µg/mL) in data set [2] (ethanol, organic solvent or mixture); roughly 3000 µM (≈ 859 µg/mL) in data set [2] (methanol, organic solvent or mixture); roughly 115 µM (≈ 32.9 µg/mL) in data set [2] (water). The EAE amelioration result with EAE (daily 200 μg per mouse, i.p. or orally, Quintana et al. PNAS 2010) was “ameliorated”.

In the case of “Free MOG: MOG35-55 peptide MEVGWYRSPFSRVVHLYRNGK (SEQ ID NO: 82) delivered freely”, the 2D2 cell proliferation result in the data set on splenocytes of 2D2 mice was “induced 2D2 cell proliferation”.
